Experimental data taken from PubChem BioAssay (NCI).
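96-well plates; 48 h exposure; 5 concentrations. Endpoints by linear interpolation between flanking doses. Not reached: highest tested concentration assigned. The concentration for full growth arrest is given as TGI.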

How the values were obtained:
Assay in all cases: DTP human tumour cell line panel, 48 h
[1] = system: 786-0 renal
[2] = system: A498 renal
[3] = system: A549 NSCLC
[4] = system: ACHN renal
[5] = system: BT-549 breast
[6] = system: CAKI-1 renal
[7] = system: CCRF-CEM leukemia
[8] = system: COLO 205 colon
[9] = system: DU-145 prostate
[10] = system: EKVX NSCLC
[11] = system: HCC-2998 colon
[12] = system: HCT-116 colon
[13] = system: HCT-15 colon
[14] = system: HOP-62 NSCLC
[15] = system: HOP-92 NSCLC
[16] = system: HT29 colon
[17] = system: IGROV1 ovarian
[18] = system: K-562 leukemia
[19] = system: KM12 colon
[20] = system: LOX IMVI melanoma
[21] = system: M14 melanoma
[22] = system: MALME-3M melanoma
[23] = system: MCF7 breast
[24] = system: MDA-MB-231 breast
[25] = system: MDA-MB-435
[26] = system: MDA-N
[27] = system: MOLT-4 leukemia
[28] = system: NCI-H226 lung
[29] = system: NCI-H23 lung
[30] = system: NCI-H460 lung
[31] = system: NCI-H522 lung
[32] = system: NCI/ADR-RES ovarian
[33] = system: OVCAR-3 ovarian
[34] = system: OVCAR-4 ovarian
[35] = system: OVCAR-5 ovarian
[36] = system: OVCAR-8 ovarian
[37] = system: PC-3 prostate
[38] = system: RXF 393 renal
[39] = system: SF-268 CNS
[40] = system: SF-295 CNS
[41] = system: SF-539 CNS
[42] = system: SK-MEL-2 melanoma
[43] = system: SK-MEL-28 melanoma
[44] = system: SK-MEL-5 melanoma
[45] = system: SK-OV-3 ovarian
[46] = system: SN12C renal
[47] = system: SNB-19 CNS
[48] = system: SNB-75 CNS
[49] = system: SR leukemia
[50] = system: SW-620 colon
[51] = system: T-47D breast
[52] = system: TK-10 renal
[53] = system: U251 CNS
[54] = system: UACC-257 melanoma
[55] = system: UACC-62 melanoma
[56] = system: UO-31 renal
[57] = system: HL-60(TB) leukemia
[58] = system: HS 578T breast
[59] = system: RPMI-8226 leukemia

Measured: TGI

Cc1c2c(Cl)c3c(c(Cl)c2c(C)c2c(Cl)c4c(c(Cl)c12)C(c1ccccc1)(c1ccccc1)C4(c1ccccc1)c1ccccc1)C(c1ccccc1)(c1ccccc1)C3(c1ccccc1)c1ccccc1
not listed: [57] | [58] | [59]
> 100 µM: all other assays above

Cc1ccc(C)n1-c1ccccc1C1C=CN(C(=O)OC(C)(C)C)C=C1
45.1 µM: [12]
53.3 µM: [24]
37.4 µM: [20]
47.8 µM: [22]
68.7 µM: [27]
41.7 µM: [50]
35.6 µM: [42]
96.9 µM: [30]
77.9 µM: [55]
32.6 µM: [23]
31.5 µM: [28]
77.8 µM: [53]
31.2 µM: [19]
45.7 µM: [13]
56.6 µM: [48]
27.7 µM: [16]
46.8 µM: [33]
32.4 µM: [8]
34 µM: [11]
60.8 µM: [10]
60.4 µM: [38]
36.2 µM: [31]
not listed: [49] | [51]
> 100 µM: all other assays above

C/C(=N\NC(=O)c1ccncc1)c1ccccc1F
not listed: [5] | [9] | [10] | [16] | [24] | [25] | [31] | [34] | [54] | [55] | [58]
> 10 µM: all other assays above

NC(=O)C1Cc2cc3c(cc21)OCO3 (centres undefined)
not listed: [2] | [7] | [15] | [18] | [25] | [27] | [34] | [42] | [43] | [46] | [49] | [50] | [51] | [53] | [57] | [59]
> 100 µM: all other assays above
